Marks after values point to notes of the source that are not given here.
Assay: LogP by HPLC on reversed phase columns (EEC directive 79/831 Annex V.A8)
Format: physicochemical
Conditions: for chromatographic logP: reversed phase HPLC column
Experimental: [table] If more than one LogP value is available within the same method, all the values are given and separated by “+”. […] Lambda-max-values were determined using UV-spectra from 200 nm to 400 nm and the peak values of the chromatographic signals. Measurement of LogP values was performed as outlined above.

[1] = [a] LC-UV, acidic range, 0.1% formic acid in water and acetonitrile as eluent
[2] = [b] LC-UV, neutral range, 0.001 molar ammonium acetate solution in water and acetonitrile as eluent

| LogP [1] | SMILES | LogP [2] | other results |
| --- | --- | --- | --- |
| 3.54^[a]; | OC(Cn1cncn1)(c1ccc(F)cc1F)C1(Oc2cccc(Br)c2)CC1 (racemic) [Example I-06] | 3.54^[b] | – |
| 3.67^[a]; | OC(Cn1cncn1)(c1ccc(F)cc1F)C1(Oc2ccccc2)CC1 (racemic) [Example I-11] | 3.71^[b] | – |
| 3.99^[a]; | Cc1cc(Br)ccc1OC1(C(O)(Cn2cncn2)c2ccc(F)cc2F)CC1 (racemic) [Example I-13] | 4.08^[b] | – |
| 3.70^[a]; | OC(Cn1cncn1)(c1ccc(F)cc1F)C1(Oc2ccc(OC(F)(F)F)cc2)CC1 (racemic) [Example I-14] | 3.77^[b] | – |
| 4.09^[a]; | OC(Cn1cncn1)(c1ccc(F)cc1F)C1(Oc2ccc(SC(F)(F)F)cc2)CC1 (racemic) [Example I-15] | 4.13^[b] | – |
| 3.02^[a] | OC(Cn1cncn1)(c1ccc(F)cc1F)C1(Oc2c(F)cccc2F)CC1 (racemic) [Example I-18] | – | – |
| 3.76^[a] | OC(Cn1cncn1)(c1ccc(F)cc1F)C1(Oc2c(Cl)cccc2Cl)CC1 (racemic) [Example I-19] | – | – |
| 4.06^[a] | COC(Cn1cncn1)(c1ccc(F)cc1F)C1(Oc2c(Cl)cccc2Cl)CC1 (racemic) [Example I-20] | – | – |
| 3.48^[a] | COC(Cn1cncn1)(c1ccc(F)cc1F)C1(Oc2c(F)cccc2F)CC1 (racemic) [Example I-21] | – | – |
| 3.39^[a] | OC(Cn1cncn1)(c1ccc(F)cc1F)C1(Oc2c(F)cccc2Cl)CC1 (racemic) [Example I-22] | – | – |
| 3.78^[a] | COC(Cn1cncn1)(c1ccc(F)cc1F)C1(Oc2c(F)cccc2Cl)CC1 (racemic) [Example I-23] | – | – |
| 3.51^[a] | OC(Cn1cncn1)(c1ccc(F)cc1F)C1(Oc2c(F)cccc2Br)CC1 (racemic) [Example I-24] | – | – |
| 3.83^[a] | COC(Cn1cncn1)(c1ccc(F)cc1F)C1(Oc2c(F)cccc2Br)CC1 (racemic) [Example I-25] | – | – |
| 3.44^[a] | COC(Cn1cncn1)(c1ccc(F)cc1F)C1(Oc2ccc(F)cc2F)CC1 (racemic) [Example I-26] | – | – |
| 3.94^[a] | OC(Cn1cncn1)(c1ccc(Cl)cc1F)C1(Oc2ccc(Cl)cc2)CC1 (racemic) [Example I-27] | – | – |
| 4.29^[a] | COC(Cn1cncn1)(c1ccc(Cl)cc1F)C1(Oc2ccc(Cl)cc2)CC1 (racemic) [Example I-28] | – | – |
| 3.89^[a] | OC(Cn1cncn1)(c1ccc(Cl)cc1F)C1(Oc2ccc(Cl)cc2F)CC1 (racemic) [Example I-29] | – | – |
| 4.32^[a] | CCOC(Cn1cncn1)(c1ccc(F)cc1F)C1(Oc2ccc(Cl)cc2)CC1 (racemic) [Example I-30] | – | – |

| LogP [1] | SMILES | LogP [2] | other results |
| --- | --- | --- | --- |
| 3.90^[a] | C#CCOC(Cn1cncn1)(c1ccc(F)cc1F)C1(Oc2ccc(Cl)cc2)CC1 (racemic) [Example I-31] | – | – |
| 4.73^[a] | CCCOC(Cn1cncn1)(c1ccc(F)cc1F)C1(Oc2ccc(Cl)cc2)CC1 (racemic) [Example I-32] | – | – |
| 4.34^[a] | C=CCOC(Cn1cncn1)(c1ccc(F)cc1F)C1(Oc2ccc(Cl)cc2)CC1 (racemic) [Example I-33] | – | – |
| 5.68^[a] | C[Si](C)(C)COC(Cn1cncn1)(c1ccc(F)cc1F)C1(Oc2ccc(Cl)cc2)CC1 (racemic) [Example I-34] | – | – |
| 4.71^[a] | Fc1ccc(C(Cn2cncn2)(OCC2CC2)C2(Oc3ccc(Cl)cc3)CC2)c(F)c1 (racemic) [Example I-35] | – | – |
| 3.81^[a] | COC(Cn1cncn1)(c1ccc(F)cc1F)C1(Oc2ccc(Cl)cc2)CC1 (racemic) [Example I-36] | – | – |
| 5.11^[a] | CC(C)COC(Cn1cncn1)(c1ccc(F)cc1F)C1(Oc2ccc(Cl)cc2)CC1 (racemic) [Example I-37] | – | – |
| 3.70^[a] | OC(Cn1cncn1)(c1ccc(F)cc1F)C1(Oc2ccc(C(F)(F)F)cc2)CC1 (racemic) [Example I-38] | – | – |
| 3.55^[a] | OC(Cn1cncn1)(c1ccc(F)cc1F)C1(Oc2cccc(Cl)c2)CC1 (racemic) [Example I-39] | – | – |
| 3.63^[a] | OC(Cn1cncn1)(c1ccc(F)cc1F)C1(Oc2ccc(Cl)c(F)c2)CC1 (racemic) [Example I-40] | – | – |
| 5.08^[a] | Fc1cc(Cl)ccc1C1(C2(Oc3ccc(Cl)cc3)CC2)CO1 (racemic) [Example V-22] | – | – |
| 5.00^[a] | Fc1cc(Cl)ccc1OC1(C2(c3ccc(Cl)cc3F)CO2)CC1 (racemic) [Example V-23] | – | – |
| 4.89^[a] | Fc1ccc(C2(C3(Oc4ccc(Br)c(F)c4)CC3)CO2)c(F)c1 (racemic) [Example V-24] | – | – |
| 4.24^[a] | Fc1ccc(C2(C3(Oc4ccc(OC(F)F)cc4)CC3)CO2)c(F)c1 (racemic) [Example V-25] | – | – |
| 4.44^[a] | Fc1ccc(C2(C3(Oc4cccc(Cl)c4F)CC3)CO2)c(F)c1 (racemic) [Example V-26] | – | – |
| 4.36^[a] | Fc1ccc(C2(C3(Oc4ccc(F)c(F)c4)CC3)CO2)c(F)c1 (racemic) [Example V-27] | – | – |
| – | Fc1ccc(C2(C3(Oc4ccc(Cl)cc4)CC3)CO2)c(F)c1 (stereo not shown) [Example V-1, 2-[1-(4-chlorophenoxy)cyclopropyl]-2-(2,4-difluorophenyl)oxirane] | – | chromatographic logP [1]: 4.57; chromatographic logP [2]: 4.58 |
| 4.50^[a]; 4.50^[b] | Fc1ccc(C2(C3(Oc4ccc(Cl)cc4F)CC3)CO2)c(F)c1 (stereo not shown) [Example V-2] | 4.50^[a]; 4.50^[b] | – |

| SMILES | LogP [1] | LogP [2] | other results |
| --- | --- | --- | --- |
| OC(Cn1cncn1)(c1ccc(F)cc1F)C1(Oc2ccc(Cl)cc2F)CC1 (racemic) [Example I-01] | 3.52^[a]; | 3.50^[b] | – |
| OC(Cn1cncn1)(c1ccc(F)cc1F)C1(Oc2ccc(F)cc2Cl)CC1 (racemic) [Example I-02] | 3.47^[a]; | 3.46^[b] | – |
| OC(Cn1cncn1)(c1ccc(F)cc1F)C1(Oc2ccccc2F)CC1 (racemic) [Example I-03] | 3.04^[a] | – | – |
| OC(Cn1cncn1)(c1ccc(F)cc1F)C1(Oc2ccccc2I)CC1 (racemic) [Example I-04] | 3.64^[a]; | 3.64^[b] | – |
| OC(Cn1cncn1)(c1ccc(F)cc1F)C1(Oc2ccccc2Br)CC1 (racemic) [Example I-05] | 3.44^[a]; | 3.43^[b] | – |
| OC(Cn1cncn1)(c1ccc(F)cc1F)C1(Oc2ccc(Br)cc2)CC1 (racemic) [Example I-07] | 3.59^[a]; | 3.59^[b] | – |
| OC(Cn1cncn1)(c1ccc(F)cc1F)C1(Oc2ccc(I)cc2)CC1 (racemic) [Example I-08] | 3.78^[a]; | 3.80^[b] | – |
| OC(Cn1cncn1)(c1ccc(F)cc1F)C1(Oc2ccc(Br)cc2F)CC1 (racemic) [Example I-09] | 3.56^[a]; | 3.54^[b] | – |
| Cc1cc(I)ccc1OC1(C(O)(Cn2cncn2)c2ccc(F)cc2F)CC1 (racemic) [Example I-12] | 4.25^[a]; | 4.30^[b] | – |
| OC(Cn1cncn1)(c1ccc(Cl)cc1F)C1(Oc2ccc(F)cc2F)CC1 (racemic) [Example I-16] | 3.44^[a] | – | – |
| CC(=O)OC(Cn1cncn1)(c1ccc(F)cc1F)C1(Oc2ccc(Cl)cc2)CC1 (racemic) [Example I-17] | 3.47^[a]; | 3.47^[b] | – |
| OC(Cn1cncn1)(c1ccc(F)cc1F)C1(Oc2ccc(Cl)cc2)CC1 (single isomer, unassigned) [Example I-41] | 3.48^[a] | – | – |

Source: patent US20180116220A1, “NOVEL TRIAZOLE DERIVATIVES” (BAYER CROPSCIENCE AKTIENGESELLSCHAFT, priority 2015, published 2018)
